Measured values: patent US11401277B2, “Anti-bacterial heterocyclic compounds and their synthesis” (Bugworks Research, Inc., priority 2017, dated 2022)
Values after ≈ are worked out from the molar mass of the structure shown. Values joined by “and” are separate entries in the source; they are usually repeats but may differ in a detail not shown here. Equal values may be shown once. Read-outs that look alike come from different tables or passages of the source.

Columns and labels:
E. coli DNA gyrase = E. coli DNA gyrase (Escherichia coli, UniProt P0AES4+P0AES6); assay: biochemical
[1] = system: K. pneumoniae clinical strains; assay: Susceptibility (MIC50 and MIC90 determination) studies, clinical strains; type: cell-based; settings: CLSI
[2] = IV Formulation solubility; type: physicochemical; settings: 10% L-ascorbic acid in MilliQ water, 37 °C, pH 2.8, aqueous with cosolvent or surfactant or cyclodextrin, thermodynamic from solid, 1N NaOH for pH adjustment, read-out: Solubility in 10% L-ascorbic acid in fresh MilliQ water(v/v), Final pH~2.8
Description: Procedure: Weighed appropriate amount of the Compound 2 to be tested and dissolved in 1 ml of the 10% ascorbic acid solution. (Vortex for a few seconds if the compound doesn't dissolve instantly). Sonicated the compound solution at 37° C. for 5 minutes using a bath sonicator to obtain a visually clear solution. […]

E. coli [ATCC25922] = assay: Neutropenic Thigh Infection Model in Rat, E. coli; type: in vivo; settings: for MEAN ± SD (Log10 CFU/g thigh) / Mean Log 10 CFU/thigh reduction (wrt 2 h PI control: 5.04 Log10CFU/g thigh) / Log10 CFU/g thigh: i.v., 1 h infusion; for Log10 CFU/g thigh: individual animals, 10 hr post infection
A. baumannii ATCC 19606 = assay: MIC studies in LB Media; type: cell-based; settings: Acinetobacter baumannii, ATCC19606, read-out: Minimum Inhibitory Concentration in LB Media, A. ba
Description: (§1) Bacterial cultures that were stored as glycerol stocks at −80° C. were sub cultured on LB agar plates to obtain isolated colonies. A single colony of each strain was cultured in LB broth. The cultures were incubated at 37° C., 200 rpm till they reach an optical density (OD at 600 nm) of 0.8 to 1. […] Test compounds were dissolved in dimethyl sulfoxide (DMSO) to a stock concentration of 4 mg/ml. A two-fold dilution series of this DMSO stock was prepared in a 96 well V bottom microtitre plate from rows A to H. A 3 μL volume of these dilutions were transferred to a 96-well flat bottom microtitre assay plate. Controls to monitor the effects of DMSO and media sterility were included. Each well was inoculated with 150 μL of the above diluted culture. The plates were incubated at 37° C. overnight in a humidified incubator. The following morning, the plates were read using a Spectrophotometer at 600 nm wavelength.

E. coli ATCC 25922 = assay: MIC studies in LB Media; type: cell-based; settings: Escherichia coli, ATCC25922, read-out: Minimum Inhibitory Concentration in LB Media, E. co
Description: as §1

[3] = system: Citrobacter freundii ATCC 43864; assay: MIC studies in LB Media; type: cell-based; settings: ATCC43864, read-out: Minimum Inhibitory Concentration in LB Media, C. fr
Description: as §1

S. aureus ATCC 29213 = assay: MIC studies in LB Media; type: cell-based; settings: Staphylococcus aureus, ATCC29213, MIC = 90% inhibition of growth, read-out: Minimum Inhibitory Concentration in LB Media, S. au
Description: as §1

K. pneumoniae ATCC 13883 = assay: MIC studies in LB Media; type: cell-based; settings: Klebsiella pneumoniae, ATCC13883, read-out: Minimum Inhibitory Concentration in LB Media, K. pn
Description: as §1

[4] = system: Proteus mirabilis ATCC 43071; assay: MIC studies in LB Media; type: cell-based; settings: ATCC43071, read-out: Minimum Inhibitory Concentration in LB Media, P. mi
Description: as §1

P. aurigenosa ATCC 27853 = assay: MIC studies in LB Media; type: cell-based; settings: Pseudomonas aeruginosa, ATCC27853, read-out: Minimum Inhibitory Concentration in LB Media, P. ae
Description: as §1

[5] = In vivo pharmacokinetic (PK) studies in rats; set-up: species or system Sprague-Dawley (SD) rats; settings: for Cmax / Vd / bioavailability / AUC(0-inf) / AUC(0-t) / Tmax / half-life / clearance: Sprague-Dawley, rat, plasma; for Vd: iv; for bioavailability: po, read-out: Bioavailability* (F, %); for clearance: read-out: CLp (converted)
[6] = system: E. cloacae clinical strains; assay: Susceptibility (MIC50 and MIC90 determination) studies, clinical strains; type: cell-based; settings: CLSI
[7] = system: A. baumanni clinical strains; assay: as above; type: cell-based; settings: CLSI
[8] = Klebsiella pneumoniae, Kpn clinical strains

Sequence of E. coli DNA gyrase (P0AES4 whole entry, one chain of several): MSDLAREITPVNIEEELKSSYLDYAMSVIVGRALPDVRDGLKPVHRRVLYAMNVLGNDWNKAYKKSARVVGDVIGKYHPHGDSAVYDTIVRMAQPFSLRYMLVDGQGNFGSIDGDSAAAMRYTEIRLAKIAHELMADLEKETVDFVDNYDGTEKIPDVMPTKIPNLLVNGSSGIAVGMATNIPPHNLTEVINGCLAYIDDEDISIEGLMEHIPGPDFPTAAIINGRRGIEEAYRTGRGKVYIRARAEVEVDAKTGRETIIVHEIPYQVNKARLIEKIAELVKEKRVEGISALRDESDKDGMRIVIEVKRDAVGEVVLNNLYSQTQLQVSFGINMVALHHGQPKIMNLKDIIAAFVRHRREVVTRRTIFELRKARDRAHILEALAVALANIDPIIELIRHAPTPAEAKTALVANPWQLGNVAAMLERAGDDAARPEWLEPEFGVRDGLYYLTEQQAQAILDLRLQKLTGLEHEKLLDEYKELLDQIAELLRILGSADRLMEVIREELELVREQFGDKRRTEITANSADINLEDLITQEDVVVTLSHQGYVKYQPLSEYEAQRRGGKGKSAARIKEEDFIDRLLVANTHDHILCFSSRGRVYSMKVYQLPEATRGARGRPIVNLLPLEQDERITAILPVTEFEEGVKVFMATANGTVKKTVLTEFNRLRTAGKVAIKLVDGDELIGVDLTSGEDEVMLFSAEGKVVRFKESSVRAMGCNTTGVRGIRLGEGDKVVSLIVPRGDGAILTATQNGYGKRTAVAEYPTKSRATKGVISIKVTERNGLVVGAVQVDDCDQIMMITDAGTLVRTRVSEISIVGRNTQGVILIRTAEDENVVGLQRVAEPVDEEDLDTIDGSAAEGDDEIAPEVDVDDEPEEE

SMILES: Cn1c(=O)ccc2ccc(F)c(OCCNC[C@H]3CN(c4cnc5c(n4)NC(=O)CO5)C(=O)O3)c21 [Compound 2, (S)-6-(5-(((2-((7-fluoro-1-methyl-2-oxo-1,2-dihydroquinolin-8-yl)oxy)ethyl)amino)methyl)-2-oxooxazolidin-3-yl)-2H-pyrazino[2,3-b][1,4]oxazin-3(4H)-one]
- IC50 (E. coli DNA gyrase; gel based supercoiling assay, read-out: E. coli DNA Gyrase IC50): 0.012 µM
- IC50 (E. coli DNA gyrase; unit inferred, read-out: IC50 E. coli DNA Gyrase): ≤ 0.05 µM
- MIC50 [1, 8]: 0.125 µg/mL (≈ 0.258 µM)
- MIC90 [1, 8]: 0.5 µg/mL (≈ 1.03 µM)
- Minimum (MIC) ([1]; Kpn clinical strains, MIC50/MIC90 in μg/ml): 0.06 µg/mL
- MIC ATCC13883 ([1]; Kpn reference strain ATCC13883, MIC50/MIC90 in μg/ml): 0.06 µg/mL (≈ 0.124 µM)
- solubility at 5 min [2]: 15 mg/mL (≈ 31000 µM)
- MEAN ± SD (Log10 CFU/g thigh) (E. coli [ATCC25922]; 3 mg/kg): 5.08 ± 0.39 Log10 CFU/g thigh
- Mean Log 10 CFU/thigh reduction (wrt 2 h PI control: 5.04 Log10CFU/g thigh) (E. coli [ATCC25922]; 3 mg/kg): 0.77 Log 10 CFU/thigh
- Log10 CFU/g thigh (E. coli [ATCC25922]; 3 mg/kg): 5.37 Log10 CFU/g thigh and 4.64 Log10 CFU/g thigh and 5.23 Log10 CFU/g thigh
- MEAN ± SD (Log10 CFU/g thigh) (E. coli [ATCC25922]; 10 mg/kg): 4.41 ± 0.18 Log10 CFU/g thigh
- Mean Log 10 CFU/thigh reduction (wrt 2 h PI control: 5.04 Log10CFU/g thigh) (E. coli [ATCC25922]; 10 mg/kg): 1.44 Log 10 CFU/thigh
- Log10 CFU/g thigh (E. coli [ATCC25922]; 10 mg/kg): 4.44 Log10 CFU/g thigh and 4.57 Log10 CFU/g thigh and 4.21 Log10 CFU/g thigh
- MEAN ± SD (Log10 CFU/g thigh) (E. coli [ATCC25922]; 30 mg/kg): 2.83 ± 0.35 Log10 CFU/g thigh
- Mean Log 10 CFU/thigh reduction (wrt 2 h PI control: 5.04 Log10CFU/g thigh) (E. coli [ATCC25922]; 30 mg/kg): 3.02 Log 10 CFU/thigh
- Log10 CFU/g thigh (E. coli [ATCC25922]; 30 mg/kg): 2.66 Log10 CFU/g thigh and 2.6 Log10 CFU/g thigh and 3.24 Log10 CFU/g thigh
- efficacy with respect to 2 h Post Infection (PI) control (in words) (E. coli [ATCC25922]; 3, 10 and 30 mg/kg, rat thigh E. coli): significant dose dependent bactericidal efficacy
- MIC (A. baumannii ATCC 19606): 0.06 µg/mL (≈ 0.124 µM)
- MIC (E. coli ATCC 25922): 0.03 µg/mL (≈ 0.0619 µM)
- MIC [3]: ≤ 0.03 µg/mL
- MIC (S. aureus ATCC 29213): ≤ 0.015 µg/mL
- MIC (K. pneumoniae ATCC 13883): 0.06 µg/mL (≈ 0.124 µM)
- MIC [4]: 0.125 µg/mL (≈ 0.258 µM)
- MIC (P. aurigenosa ATCC 27853): 0.5 µg/mL (≈ 1.03 µM)
- AUC and Cmax versus dose (in words) ([5]; IV infusion and Oral dosing at 5, 10, 30 & 100 mg/kg doses in SD rats): Dose proportional increase
- clearance (in words) ([5]; SD rats): moderate
- half life (in words) ([5]; SD rats): moderate
- oral bioavailability (in words) ([5]; SD rats): good
- volume of distribution (in words) ([5]; SD rats): low
- Cmax ([5]; 5 mg/kg, IV (1 h infusion), male SD rats): 2800 ± 970 ng/mL
- Cmax ([5]; 10 mg/kg PO, male SD rats): 2580 ± 75 ng/mL
- Cmax ([5]; 30 mg/kg, IV (1 h infusion), male SD rats): 25200 ± 610 ng/mL
- Cmax ([5]; 100 mg/kg, IV (1 h infusion), male SD rats): 93400 ± 4400 ng/mL
- Cmax ([5]; 150 mg/kg, IV (1 h infusion), male SD rats): 112000 ± 7580 ng/mL
- Vd ([5]; male, 5 mg/kg, IV, read-out: Vd): 6.4 ± 1.07 L/kg
- Vd ([5]; male, 5 mg/kg, IV, read-out: Vss): 1.09 ± 0.13 L/kg
- Vd ([5]; male, 30 mg/kg, IV, read-out: Vd): 4.94 ± 1.8 L/kg
- Vd ([5]; male, 30 mg/kg, IV, read-out: Vss): 0.62 ± 0.05 L/kg
- Vd ([5]; male, 100 mg/kg, IV, read-out: Vd): 5.57 ± 0.56 L/kg
- Vd ([5]; male, 100 mg/kg, IV, read-out: Vss): 0.69 ± 0.02 L/kg
- Vd ([5]; male, 150 mg/kg, IV, read-out: Vd): 5.38 ± 1.1 L/kg
- Vd ([5]; male, 150 mg/kg, IV, read-out: Vss): 0.73 ± 0.07 L/kg
- bioavailability ([5]; male, 10 mg/kg): 33.3 ± 3.1%
- bioavailability ([5]; male, 30 mg/kg): 66.8 ± 14.4%
- bioavailability ([5]; male, 100 mg/kg): 38.4 ± 12.4%
- bioavailability ([5]; male, 300 mg/kg): 24.2 ± 15.6%
- AUC(0-inf) ([5]; male, 5 mg/kg, IV): 1870 ± 350 ng·h/mL
- AUC(0-t) ([5]; male, 5 mg/kg, IV): 1870 ± 350 ng·h/mL
- Tmax ([5]; male, 5 mg/kg, IV): 0.76 ± 0.02 h
- half-life ([5]; male, 5 mg/kg, IV): 1.53 ± 0.07 h
- clearance ([5]; male, 5 mg/kg, IV): 45.7 mL/min/kg
- AUC(0-inf) ([5]; male, 10 mg/kg PO): 1240 ± 100 ng·h/mL
- Tmax ([5]; male, 10 mg/kg PO): 0.25 h
- half-life ([5]; male, 10 mg/kg PO): 1.84 ± 0.15 h
- AUC(0-inf) ([5]; male, 30 mg/kg, IV): 21800 ± 150 ng·h/mL
- AUC(0-t) ([5]; male, 30 mg/kg, IV): 21780 ± 150 ng·h/mL
- Tmax ([5]; male, 30 mg/kg, IV): 1 h
- half-life ([5]; male, 30 mg/kg, IV): 2.45 ± 0.78 h
- clearance ([5]; male, 30 mg/kg, IV): 23 mL/min/kg
- AUC(0-inf) ([5]; male, 30 mg/kg, PO): 7540 ± 1620 ng·h/mL
- Cmax ([5]; male, 30 mg/kg, PO): 8500 ± 2400 ng/mL
- Tmax ([5]; male, 30 mg/kg, PO): 0.5 h
- half-life ([5]; male, 30 mg/kg, PO): 1.7 ± 0.5 h
- AUC(0-inf) ([5]; male, 100 mg/kg, IV): 118000 ± 13600 ng·h/mL
- AUC(0-t) ([5]; male, 100 mg/kg, IV): 118000 ± 13600 ng·h/mL
- Tmax ([5]; male, 100 mg/kg, IV): 1 h
- half-life ([5]; male, 100 mg/kg, IV): 4.53 ± 0.12 h
- clearance ([5]; male, 100 mg/kg, IV): 14.2 mL/min/kg
- AUC(0-inf) ([5]; male, 100 mg/kg, PO): 14400 ± 4600 ng·h/mL
- Cmax ([5]; male, 100 mg/kg, PO): 9790 ± 1100 ng/mL
- Tmax ([5]; male, 100 mg/kg, PO): 0.33 ± 0.14 h
- half-life ([5]; male, 100 mg/kg, PO): 5.32 ± 2.1 h
- AUC(0-inf) ([5]; male, 150 mg/kg, IV): 172000 ± 10700 ng·h/mL
- AUC(0-t) ([5]; male, 150 mg/kg, IV): 172000 ± 10800 ng·h/mL
- Tmax ([5]; male, 150 mg/kg, IV): 2 h
- half-life ([5]; male, 150 mg/kg, IV): 4.24 ± 0.67 h
- clearance ([5]; male, 150 mg/kg, IV): 14.5 mL/min/kg
- AUC(0-inf) ([5]; male, 300 mg/kg, PO): 27200 ± 17500 ng·h/mL
- Cmax ([5]; male, 300 mg/kg, PO): 11100 ± 3100 ng/mL
- Tmax ([5]; male, 300 mg/kg, PO): 1 h
- half-life ([5]; male, 300 mg/kg, PO): 2.2 h
- Minimum (MIC) ([6]; MIC50/MIC90 in μg/ml): 0.03 µg/mL
- MIC50 ([6]; Enterobacter cloacae): 0.125 µg/mL (≈ 0.258 µM)
- MIC90 ([6]; Enterobacter cloacae): 0.25 µg/mL (≈ 0.516 µM)
- MIC50 ([7]; Aba clinical strains): 0.06 µg/mL (≈ 0.124 µM)
- MIC90 ([7]; Aba clinical strains): 0.25 µg/mL (≈ 0.516 µM)
- Minimum (MIC) ([7]; Aba clinical strains, MIC50/MIC90 in μg/ml, in µg/mL): 0.03
- MIC ATCC19606 ([7]; Aba reference strain ATCC19606, MIC50/MIC90 in μg/ml): 0.06 µg/mL (≈ 0.124 µM)
